What was measured:
RIG-I = target: T1, RIG-I (Homo sapiens, UniProt O95786); experiment: IFN-β luciferase reporter assay in HEK293T cells, RIG-I driven (counter-screen and validation)
T1 sequence (O95786 1-925): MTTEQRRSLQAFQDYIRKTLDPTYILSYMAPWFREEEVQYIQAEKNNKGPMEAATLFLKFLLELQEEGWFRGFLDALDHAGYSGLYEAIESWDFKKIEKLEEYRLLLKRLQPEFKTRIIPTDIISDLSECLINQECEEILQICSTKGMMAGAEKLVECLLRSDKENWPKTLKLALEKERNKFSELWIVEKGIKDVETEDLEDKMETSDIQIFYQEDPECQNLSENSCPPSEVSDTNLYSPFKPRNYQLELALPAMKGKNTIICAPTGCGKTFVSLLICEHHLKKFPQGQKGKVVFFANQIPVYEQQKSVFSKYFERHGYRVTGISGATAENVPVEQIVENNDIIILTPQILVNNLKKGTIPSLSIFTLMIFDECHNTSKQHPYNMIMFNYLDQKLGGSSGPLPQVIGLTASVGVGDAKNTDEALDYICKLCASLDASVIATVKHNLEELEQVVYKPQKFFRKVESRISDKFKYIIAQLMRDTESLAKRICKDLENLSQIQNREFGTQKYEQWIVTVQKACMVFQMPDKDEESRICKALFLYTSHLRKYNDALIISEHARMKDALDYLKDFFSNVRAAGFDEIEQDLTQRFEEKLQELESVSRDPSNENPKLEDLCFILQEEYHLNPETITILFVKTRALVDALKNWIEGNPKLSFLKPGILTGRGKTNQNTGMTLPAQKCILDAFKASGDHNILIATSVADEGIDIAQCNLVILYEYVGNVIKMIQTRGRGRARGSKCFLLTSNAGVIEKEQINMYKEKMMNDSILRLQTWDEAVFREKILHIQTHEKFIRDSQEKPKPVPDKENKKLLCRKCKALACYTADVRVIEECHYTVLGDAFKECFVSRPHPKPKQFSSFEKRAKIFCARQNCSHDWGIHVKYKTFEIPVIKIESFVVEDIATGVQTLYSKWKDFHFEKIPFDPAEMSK

TBK1 = target: T2, TBK1 (Homo sapiens, UniProt Q9UHD2); experiment: IFN-β luciferase reporter assay in HEK293T cells, TBK1 driven; conditions: 0.31-2.5µM, 16 h (Figure 2)
T2 sequence (Q9UHD2 1-729): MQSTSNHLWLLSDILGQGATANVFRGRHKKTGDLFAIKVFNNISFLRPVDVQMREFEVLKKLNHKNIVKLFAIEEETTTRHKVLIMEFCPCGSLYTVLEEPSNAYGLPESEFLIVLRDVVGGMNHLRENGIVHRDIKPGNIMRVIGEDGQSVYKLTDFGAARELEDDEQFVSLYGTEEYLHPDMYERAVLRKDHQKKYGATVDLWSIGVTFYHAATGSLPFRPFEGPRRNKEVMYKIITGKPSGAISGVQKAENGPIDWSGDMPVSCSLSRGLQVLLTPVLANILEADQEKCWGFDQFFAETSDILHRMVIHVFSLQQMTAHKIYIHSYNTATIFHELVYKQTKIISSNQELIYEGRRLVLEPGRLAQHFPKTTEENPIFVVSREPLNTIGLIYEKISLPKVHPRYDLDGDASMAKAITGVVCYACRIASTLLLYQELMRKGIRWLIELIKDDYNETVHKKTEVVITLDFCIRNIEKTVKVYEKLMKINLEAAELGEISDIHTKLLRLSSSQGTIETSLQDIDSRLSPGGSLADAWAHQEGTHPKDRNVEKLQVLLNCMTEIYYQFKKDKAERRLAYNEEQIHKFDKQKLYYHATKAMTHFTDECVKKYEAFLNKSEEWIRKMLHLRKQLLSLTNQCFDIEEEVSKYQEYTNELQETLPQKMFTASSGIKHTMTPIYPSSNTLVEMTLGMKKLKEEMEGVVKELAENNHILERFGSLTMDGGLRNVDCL

For CCc1ccc(NC(=O)Nc2c[nH]c3ccccc23)cc1 [F2740-0151, 1-(4-ethylphenyl)-3-(1H-indol-3-yl)urea], the “RIG-I-mediated type I IFN induction” value (RIG-I; 0.31-2.5µM, 16 h (Figure 2)) was “failed to suppress”, the “RIG-I driven activation of the IFN-β reporter” value (RIG-I; counter-screen of hits from the primary screen) was “but not RIG-I-dependent type I IFN induction” and the “TBK1-mediated type I IFN induction” value (TBK1) was “failed to suppress”.

— EP3556362A1, “STING INHIBITORS” (ECOLE POLYTECHNIQUE FEDERALE DE LAUSANNE (EPFL), priority 2018, dated 2019)
